SMILES strings stand for the structures.

Chain of hKIF18A (1-374) (Q8NI77 whole entry, looked up): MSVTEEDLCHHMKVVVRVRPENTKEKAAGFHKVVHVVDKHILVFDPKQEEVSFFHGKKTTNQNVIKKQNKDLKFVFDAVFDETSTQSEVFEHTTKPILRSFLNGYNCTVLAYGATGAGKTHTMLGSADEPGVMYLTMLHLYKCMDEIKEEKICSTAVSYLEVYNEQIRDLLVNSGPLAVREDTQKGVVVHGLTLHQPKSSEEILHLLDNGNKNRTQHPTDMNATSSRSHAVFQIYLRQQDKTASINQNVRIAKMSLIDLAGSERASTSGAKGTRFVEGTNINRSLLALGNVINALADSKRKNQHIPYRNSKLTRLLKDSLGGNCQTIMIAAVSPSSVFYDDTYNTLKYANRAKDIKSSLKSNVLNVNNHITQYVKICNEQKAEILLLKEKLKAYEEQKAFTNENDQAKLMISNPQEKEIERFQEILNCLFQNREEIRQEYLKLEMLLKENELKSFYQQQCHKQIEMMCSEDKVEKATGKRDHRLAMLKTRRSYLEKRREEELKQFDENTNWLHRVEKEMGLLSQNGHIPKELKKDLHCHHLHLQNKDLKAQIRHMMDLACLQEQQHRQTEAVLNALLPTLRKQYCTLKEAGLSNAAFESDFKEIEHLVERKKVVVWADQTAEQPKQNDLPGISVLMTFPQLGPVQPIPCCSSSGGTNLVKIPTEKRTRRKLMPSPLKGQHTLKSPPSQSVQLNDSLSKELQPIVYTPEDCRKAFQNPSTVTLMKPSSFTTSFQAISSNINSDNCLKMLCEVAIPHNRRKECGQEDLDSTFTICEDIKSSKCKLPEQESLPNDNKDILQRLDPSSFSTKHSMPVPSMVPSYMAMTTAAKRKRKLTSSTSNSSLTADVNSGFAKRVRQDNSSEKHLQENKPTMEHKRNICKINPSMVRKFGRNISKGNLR
Chain of hKIF18A (1-374) (Q2XVP4 whole entry partner, looked up): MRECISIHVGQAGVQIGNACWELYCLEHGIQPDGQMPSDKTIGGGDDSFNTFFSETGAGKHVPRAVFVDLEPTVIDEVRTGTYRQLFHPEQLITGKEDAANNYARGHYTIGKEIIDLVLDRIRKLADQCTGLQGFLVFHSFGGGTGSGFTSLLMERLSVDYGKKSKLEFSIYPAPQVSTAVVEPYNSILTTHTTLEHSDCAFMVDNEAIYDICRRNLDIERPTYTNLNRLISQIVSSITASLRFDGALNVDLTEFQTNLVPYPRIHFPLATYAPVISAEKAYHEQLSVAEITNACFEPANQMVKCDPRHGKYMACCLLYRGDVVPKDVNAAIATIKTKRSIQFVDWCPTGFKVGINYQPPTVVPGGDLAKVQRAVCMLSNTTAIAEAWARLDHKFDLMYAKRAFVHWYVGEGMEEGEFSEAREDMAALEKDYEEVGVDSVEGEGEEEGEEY
Chain of hKIF18A (1-374) (P02554 whole entry partner, looked up): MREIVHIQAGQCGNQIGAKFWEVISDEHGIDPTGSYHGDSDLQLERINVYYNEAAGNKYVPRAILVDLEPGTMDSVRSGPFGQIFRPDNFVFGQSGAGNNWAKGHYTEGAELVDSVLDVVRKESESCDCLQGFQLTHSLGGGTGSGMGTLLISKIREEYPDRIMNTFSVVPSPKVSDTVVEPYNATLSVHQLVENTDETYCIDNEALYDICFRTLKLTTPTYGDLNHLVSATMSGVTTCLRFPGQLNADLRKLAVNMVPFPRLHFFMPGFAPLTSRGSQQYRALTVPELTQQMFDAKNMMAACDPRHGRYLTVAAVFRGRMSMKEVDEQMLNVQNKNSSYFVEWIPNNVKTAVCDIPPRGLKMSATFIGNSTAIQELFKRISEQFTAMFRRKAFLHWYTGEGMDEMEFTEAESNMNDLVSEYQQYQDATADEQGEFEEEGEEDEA

The assay addresses hKIF18A (1-374) (Homo sapiens (Human), UniProt Q8NI77). Put plainly: Inhibition of KIF18A microtubule-dependent ATPase activity (ADP-Glo). As to conditions: KIF18A microtubule-dependent ATPase activity, biochemical assay.
Protocol: Biological Assays Inhibition of KIF18A Microtubule-Dependent ATPase Activity:
Test compounds were plated in a 3× dilution scheme in a 384-well plate. Assay buffer: 80 mM PIPES (pH 6.9), 1 mM MgCl2, 75 mM KCl, 1 mM EGTA, 1 mM DTT, 0.01% BSA, 0.005% Tween-20, 1 μM Taxol in H2O. […] After incubation at room temperature for 30 min, 2.5 μL of microtubule mix was added [0.2 mg/mL pre-formed microtubules, 2.0 mM ATP in assay buffer], the plate was centrifuged for 30 s and then incubated at 28° C. for 60 min. 5 μL of Promega® ADP-Glo Max R1 was added, the plate was centrifuged for 30 s, and the mixture incubated for 4 h at room temperature. 10 μL of Promega® ADP-Glo Max R2 was added, the plate centrifuged for 30 s, and incubated for 60 min at room temperature. Luminescence was measured with an Envision plate reader, and % Inhibition was calculated for each well as: ([max−min]−[test−min])/[max−min]. IC50 values were calculated from concentration vs. % Inhibition data via a four-parameter variable slope model.
One may read the IC50 as the concentration that inhibits the measured activity by half. High values mean weaker potency in that assay, low ones greater potency in that assay. In the case of `CS(=O)(=O)Nc1ccc2c(c1)C1(CCCCC1)CN2C(=O)c1cccc(S(=N)(=O)C2CCCC2)c1` (stereo not drawn) [Compound 49, N-(1′-(3-(cyclopentanesulfonamidoyl)benzoyl)spiro[cyclohexane-1,3′-indolin]-5′-yl)methanesulfonamide], half-maximal inhibition (IC50) required 130 nM.

For `CS(=O)(=O)Nc1ccc2c(c1)C1(CCCCC1)CN2C(=O)c1cccc(S(=O)(=O)C2CCCC2)c1` [Compound 50, N-(1′-(3-(cyclopentylsulfonyl)benzoyl)spiro [cyclohexane-1,3′-indolin]-5′-yl)methanesulfonamide], the IC50 came to 72 nM.

Take `CC(C)N(C)S(=O)(=O)c1cccc(C(=O)N2CC3(CCCCC3)c3cc(NS(C)(=O)=O)ccc32)c1` [Compound 55, N-isopropyl-N-methyl-3-(5′-(methylsulfonamido)spiro[cyclohexane-1,3′-indoline]-1′-carbonyl)benzenesulfonamide]: the half-inhibitory concentration (IC50) amounted to 140 nM. In turn, `Cc1oc(C(=O)N2CC3(CCCCC3)c3cc(NS(C)(=O)=O)ccc32)cc1S(=O)(=O)NC(C)(C)C` [Compound 57, N-(tert-butyl)-2-methyl-5-(5′-(methylsulfonamido)spiro[cyclohexane-1,3′-indoline]-1′-carbonyl)furan-3-sulfonamide] yielded a half-inhibitory concentration (IC50) of 1100 nM.

`CC(C)(C)NS(=O)(=O)c1ccc(C(=O)N2CC3(CCCCC3)c3cc(NS(C)(=O)=O)ccc32)s1` [Compound 60, N-(tert-butyl)-5-(5′-(methylsulfonamido)spiro[cyclohexane-1,3′-indoline]-1′-carbonyl)thiophene-2-sulfonamide] had an IC50 of 1200 nM. `CN=S(=O)(c1cccc(C(=O)N2CC3(CCCCC3)c3cc(NS(C)(=O)=O)ccc32)c1)C1CCCC1` (stereo not drawn) [Compound 67, N-(1′-(3-(N-methylcyclopentanesulfonimidoyl)benzoyl)spiro[cyclohexane-1,3′-indolin]-5′-yl)methanesulfonamide] gave an IC50 of 460 nM. The same measure for `CC1CCN(S(=O)(=O)c2cccc(C(=O)N3CC4(CCCCC4)c4cc(NS(C)(=O)=O)ccc43)c2)C1` (stereo not drawn) [Compound 71, N-(1′-(3-((3-methylpyrrolidin-1-yl)sulfonyl)benzoyl)spiro[cyclohexane-1,3′-indolin]-5′-yl)methanesulfonamide]: 86 nM; for `CS(=O)(=O)Nc1ccc2c(c1)C1(CCCCC1)CN2C(=O)c1cccc(S(=O)(=O)N2CCC(F)C2)c1` (stereo not drawn) [Compound 83, N-(1′-(3-((3-fluoropyrrolidin-1-yl)sulfonyl)benzoyl)spiro[cyclohexane-1,3′-indoline]-5′-yl)methanesulfonamide]: 130 nM.

`CC(C)(C)NS(=O)(=O)c1cc(F)cc(C(=O)N2CC3(CCCCC3)c3cc(NS(C)(=O)=O)ccc32)c1` [Compound 95, N-(tert-butyl)-3-fluoro-5-(5′-(methylsulfonamido)spiro[cyclohexane-1,3′-indoline]-1′-carbonyl)benzenesulfonamide] displayed an IC50 of 170 nM. In the case of `CC(C)(C)NS(=O)(=O)c1cc(C(=O)N2CC3(CCCCC3)c3cc(NS(C)(=O)=O)ccc32)ccc1F` [Compound 96, N-(tert-butyl)-2-fluoro-5-(5′-(methylsulfonamido)spiro[cyclohexane-1,3′-indoline]-1′-carbonyl)benzenesulfonamide], the IC50 is 100 nM.

`CC(C)(C)NS(=O)(=O)c1ccc(F)c(C(=O)N2CC3(CCCCC3)c3cc(NS(C)(=O)=O)ccc32)c1` [Compound 97, N-(tert-butyl)-4-fluoro-3-(5′-(methylsulfonamido)spiro[cyclohexane-1,3′-indoline]-1′-carbonyl)benzenesulfonamide] displayed an IC50 of 850 nM. For the compound `CC1CN(S(=O)(=O)c2cccc(C(=O)N3CC4(CCCCC4)c4cc(NS(C)(=O)=O)ccc43)c2)CCO1` (stereo not drawn) [Compound 107, N-(1′-(3-((2-methylmorpholino)sulfonyl)benzoyl)spiro[cyclohexane-1,3′-indolin]-5′-yl)methanesulfonamide], the IC50 worked out at 470 nM.

For the origin of these results see US12084420B2, “Indoline compounds for inhibiting KIF18A” (Volastra Therapeutics, Inc., priority 2021, dated 2024).
